The target in the test is HDM2 (Homo sapiens (Human), UniProt Q00987). Nature of the test: HDM2 FRET assay (inhibition of p53 peptide binding to HDM2). Conditions: truncated HDM2 residues 17 to 125, 0.5 nM; FITC labeled 8-mer peptide 3 nM; two hour incubation at room temperature. How it is done:
Methods: An HDM2 FRET assay was developed to assess the compounds' inhibitory activity towards binding of p53 protein. […] (containing p53 binding surface, Science (1994) 265, 346-355), with N-terminal His and Thioredoxin tag was generated in pET32a expression vector and expressed in E. coli strain BL21(DE3)Rosetta. Protein was purified using Ni-affinity chromatography, followed by size exclusion chromatography using Superdex 75 26/60 column. […] After two hour incubation at room temperature in a humidified chamber plates were read on EnVision plate reader with the following settings: excitation: UV, […], two emission filters: 520 nm and 495 nm respectively. […] IC50 DETERMINATIONS: Dose-response curves were plotted from the inhibition data, from 10 point serial dilutions of inhibitory compounds. Concentration of compound was plotted against em520/Cem495 ratio signal. To generate IC50 values, the dose-response curves were fitted to a standard sigmoidal curve and IC50 values were derived by nonlinear regression analysis.
Sequence of HDM2 (Q00987 17-125): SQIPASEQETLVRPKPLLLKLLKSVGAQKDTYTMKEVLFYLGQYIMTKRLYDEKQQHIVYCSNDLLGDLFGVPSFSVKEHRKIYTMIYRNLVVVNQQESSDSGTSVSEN
In the case of `COc1cc(OC(F)(F)F)ccc1Cn1c(-c2cccc(C)c2)cc2nc(C(=O)O)nc(N[C@H](C)C3CCC3)c21` [Example 2.5, 4-{[(1R)-1-cyclobutylethyl]amino}-5-[2-methoxy-4-(trifluoromethoxy)benzyl]-6-(3-methylphenyl)-5H-pyrrolo[3,2-d]pyrimidine-2-carboxylic acid], the IC50 was 4370 nM.
Then `Cc1cccc(-c2cc3nc(C(=O)O)nc(N[C@H](C)C4CCC4)c3n2Cc2ccc(C)c(F)c2)c1` [Example 3.6, 4-{[(1R)-1-cyclobutylethyl]amino}-5-(3-fluoro-4-methylbenzyl)-6-(3-methylphenyl)-5H-pyrrolo[3,2-d]pyrimidine-2-carboxylic acid], with 124 nM; and `C[C@H]1CC[C@H](Cn2cc(-c3ccccc3)c3nc(C(=O)O)nc(-c4cncc(Cl)c4)c32)CC1` [Example 5.5, 4-(5-chloropyridin-3-yl)-5-[(trans-4-methylcyclohexyl)methyl]-7-phenyl-5H-pyrrolo[3,2-d]pyrimidine-2-carboxylic acid], with 72 nM.
In the case of `C[C@H]1CC[C@H](Cn2ccc3nc(-c4noc(=O)[nH]4)nc(-c4cncc(Cl)c4)c32)CC1` [Example 4.4, 3-{4-(5-chloropyridin-3-yl)-5-[(trans-4-methylcyclohexyl)methyl]-5H-pyrrolo[3,2-d]pyrimidin-2-yl}-1,2,4-oxadiazol-5(4H)-one], the IC50 turned out to be 57 nM.
Take `Cc1cccc(-c2c(C)c3nc(C(=O)O)nc(N[C@H](C)C4CCC4)c3n2Cc2ccc(C(F)(F)F)cc2)c1` [Example 1.4, (R)-4-((1-cyclobutylethyl)amino)-7-methyl-6-(m-tolyl)-5-(4-(trifluoromethyl)benzyl)-5H-pyrrolo[3,2-d]pyrimidine-2-carboxylic acid]: the concentration for half-maximal inhibition (IC50) was 130 nM.
Turning to `C[C@H]1CC[C@H](Cn2ccc3nc(C(=O)O)nc(-c4cccc(Cl)c4)c32)CC1` [Example 4.1, 4-(3-chlorophenyl)-5-[(trans-4-methylcyclohexyl)methyl]-5H-pyrrolo[3,2-d]pyrimidine-2-carboxylic acid], the IC50 is 294 nM.
`CC(C)c1ccnc(-c2cc3nc(C(=O)O)nc(N[C@H](C)C4CCC4)c3n2Cc2ccc(C(F)(F)F)cc2)c1` [Example 1.10, 4-{[(1R)-1-cyclobutylethyl]amino}-6-[4-(1-methylethyl)pyridin-2-yl]-5-[4-(trifluoromethyl)benzyl]-5H-pyrrolo[3,2-d]pyrimidine-2-carboxylic acid] displayed an IC50 of 26 nM.
In turn, `Cc1cccc(-c2cc3nc(C(=O)O)nc(N[C@H](C)C4CCC4)c3n2Cc2ccc(F)c(F)c2)c1` [Example 3.5, 4-{[(1R)-1-cyclobutylethyl]amino}-5-(3,4-difluorobenzyl)-6-(3-methylphenyl)-5H-pyrrolo[3,2-d]pyrimidine-2-carboxylic acid] displayed an IC50 of 126 nM.
The compound `Cc1cccc(-c2cc3nc(C(=O)O)nc(N[C@H](C)C4CCC4)c3n2Cc2ccc(OC(F)F)cc2)c1` [Example 2.6, 4-{[(1R)-1-cyclobutylethyl]amino}-5-[4-(difluoromethoxy)benzyl]-6-(3-methylphenyl)-5H-pyrrolo[3,2-d]pyrimidine-2-carboxylic acid] had an IC50 of 1780 nM.
The compound `Cc1cn(C[C@H]2CC[C@H](C)CC2)c2c(-c3cccc(Cl)c3)nc(-c3noc(=O)[nH]3)nc12` [Example 5.2, 3-{4-(3-chlorophenyl)-7-methyl-5-[(trans-4-methylcyclohexyl)methyl]-5H-pyrrolo[3,2-d]pyrimidin-2-yl}-1,2,4-oxadiazol-5(4H)-one] returned an IC50 of 107 nM.
As to `Cc1cn(C[C@H]2CC[C@H](C)CC2)c2c(-c3cccc(Cl)c3)nc(C(=O)O)nc12` [Example 5.1, 4-(3-chlorophenyl)-7-methyl-5-[(trans-4-methylcyclohexyl)methyl]-5H-pyrrolo[3,2-d]pyrimidine-2-carboxylic acid], the IC50 amounted to 226 nM.
`C[C@H]1CC[C@H](Cn2ccc3nc(-c4noc(=O)[nH]4)nc(-c4cccc(Cl)c4)c32)CC1` [Example 4.2, 3-{4-(3-chlorophenyl)-5-[(trans-4-methylcyclohexyl)methyl]-5H-pyrrolo[3,2-d]pyrimidin-2-yl}-1,2,4-oxadiazol-5(4H)-one] yielded an IC50 of 132 nM.
For the compound `CC(C)Cc1cn(C[C@H]2CC[C@H](C)CC2)c2c(-c3cncc(Cl)c3)nc(-c3noc(=O)[nH]3)nc12` [Example 5.8, 3-[4-(5-chloropyridin-3-yl)-5-[(trans-4-methylcyclohexyl)methyl]-7-(2-methylpropyl)-5H-pyrrolo[3,2-d]pyrimidin-2-yl]-1,2,4-oxadiazol-5(4H)-one], the IC50 stood at 35 nM.
Consider `Cc1cccc(-c2cc3nc(C(=O)O)nc(N[C@H](C)C4CCC4)c3n2Cc2ccc(C(F)(F)F)c(F)c2)c1` [Example 2.7, 4-{[(1R)-1-cyclobutylethyl]amino}-5-[3-fluoro-4-(trifluoromethyl)benzyl]-6-(3-methylphenyl)-5H-pyrrolo[3,2-d]pyrimidine-2-carboxylic acid], for which the IC50 came to 87 nM.
As to `Cc1ccc(Cl)c(-c2cc3nc(C(=O)O)nc(N[C@H](C)C4CCC4)c3n2Cc2ccc(C(F)(F)F)cc2)c1` [Example 1.7, 6-(2-chloro-5-methylphenyl)-4-{[(1R)-1-cyclobutylethyl]amino}-5-[4-(trifluoromethyl)benzyl]-5H-pyrrolo[3,2-d]pyrimidine-2-carboxylic acid], the IC50 stood at 63 nM.
`C[C@@H](Nc1nc(C(=O)O)nc2cc(-c3ccc4occc4c3)n(Cc3ccc(C(F)(F)F)cc3)c12)C1CCC1` [Example 1.6, 6-(1-benzofuran-5-yl)-4-{[(1R)-1-cyclobutylethyl]amino}-5-[4-(trifluoromethyl)benzyl]-5H-pyrrolo[3,2-d]pyrimidine-2-carboxylic acid] had an IC50 of 105 nM.
With `Cc1cccc(-c2cc3nc(C(=O)O)nc(N[C@H](C)C4CCC4)c3n2Cc2ccc(C(F)(F)F)cc2)c1` [Example 1.3, (R)-4-((1-cyclobutylethyl)amino)-6-(m-tolyl)-5-(4-(trifluoromethyl)benzyl)-5H-pyrrolo[3,2-d]pyrimidine-2-carboxylic acid], the IC50 turned out to be 140 nM.
On to `Cc1cn(C[C@H]2CC[C@H](C)CC2)c2c(-c3cncc(Cl)c3)nc(C(=O)O)nc12` [Example 5.3, 4-(5-chloropyridin-3-yl)-7-methyl-5-[(trans-4-methylcyclohexyl)methyl]-5H-pyrrolo[3,2-d]pyrimidine-2-carboxylic acid], for which the IC50 turned out to be 88 nM.
As for `Cc1cn(C[C@H]2CC[C@H](C)CC2)c2c(-c3cncc(Cl)c3)nc(-c3noc(=O)[nH]3)nc12` [Example 5.4, 3-{4-(5-chloropyridin-3-yl)-7-methyl-5-[(trans-4-methylcyclohexyl)methyl]-5H-pyrrolo[3,2-d]pyrimidin-2-yl}-1,2,4-oxadiazol-5(4H)-one], the IC50 worked out at 36 nM.
The compound `Cc1cccc(-c2cc3nc(C(=O)O)nc(N[C@H](C)C4CCC4)c3n2Cc2ccc(Cl)c(F)c2)c1` [Example 3.1, 5-(4-chloro-3-fluorobenzyl)-4-{[(1R)-1-cyclobutylethyl]amino}-6-(3-methylphenyl)-5H-pyrrolo[3,2-d]pyrimidine-2-carboxylic acid] returned a concentration for half-maximal inhibition (IC50) of 21 nM.
Regarding `C[C@H]1CC[C@H](Cn2cc(Cc3ccccc3)c3nc(-c4n[nH]c(=O)o4)nc(-c4cncc(Cl)c4)c32)CC1` [Example 5.6, 5-{7-benzyl-4-(5-chloropyridin-3-yl)-5-[(trans-4-methylcyclohexyl)methyl]-5H-pyrrolo[3,2-d]pyrimidin-2-yl}-1,3,4-oxadiazol-2(3H)-one], the concentration for half-maximal inhibition (IC50) was found to be 54 nM.
Consider `Cc1ccnc(-c2cc3nc(C(=O)O)nc(N[C@H](C)C4CCC4)c3n2Cc2ccc(C(F)(F)F)cc2)c1` [Example 1.9, 4-{[(1R)-1-cyclobutylethyl]amino}-6-(4-methylpyridin-2-yl)-5-[4-(trifluoromethyl)benzyl]-5H-pyrrolo[3,2-d]pyrimidine-2-carboxylic acid], for which the IC50 amounted to 18 nM.
`C[C@H]1CC[C@H](Cn2cc(CCc3cccnc3)c3nc(C(=O)O)nc(-c4cncc(Cl)c4)c32)CC1` [Example 6.1, 4-(5-chloropyridin-3-yl)-5-[(trans-4-methylcyclohexyl)methyl]-7-(2-pyridin-3-ylethyl)-5H-pyrrolo[3,2-d]pyrimidine-2-carboxylic acid]: the half-inhibitory concentration (IC50) was 47 nM.

The values are drawn from patent publication US9637493B2, “Substituted pyrrolopyrimidines as HDM2 inhibitors” (Merck Sharp & Dohme Corp., priority 2012, dated 2017).
